Results as given in a melting point compilation (Tetko et al.; mined from patent text by program, amines drawn as free bases though some values may be those of a salt).

| melting point [°C] | Structure (SMILES) |
| --- | --- |
| 168 to 169 | COc1cccc(CNC(=O)c2nc3ccc(OCC(=O)c4ccccc4)cc3c(=O)[nH]2)c1 |
| 53 to 54 | CC1CC(=O)Nc2nc(OCCCCN3CCN(c4cccc(Cl)c4Cl)CC3)ccc21 (stereo not given) |
| 80 to 81 | COc1ccc2oc(-c3nc(C(C)(C)C)cs3)cc2c1 |
| 109 to 110 | CN=Cc1ccc2cc(OC)ccc2c1 |
| 76 to 77 | CCCCCCCCCCCC1OC1C(=O)O (stereo not given) |
| 138 | CCCc1c(OCCCOc2cccc3c2CCCC3)ccc2c1OC(CCCC(=O)O)(CCCC(=O)O)CC2=O |
| 194 to 199 | CCCn1cnc2c1c1nnc(-c3ccncc3)n1c(=O)n2CCC |
| 195 to 196 | CCNC1CN(c2c(F)cc3c(=O)c(C(=O)O)cn(-c4nc(N)c(F)cc4F)c3c2Br)C1 |
| 74 to 75 | COc1ccc(C2(O)CCCCC2)cn1 |
| 203 to 205 | CC1(O)Nc2cc(O)c(C(C)(C)C)cc2O1 (stereo not given) |
| 134 | CCCC(=O)Nc1c(Br)cc(C(=O)OCC)cc1CN(CC)CC |
| 145 to 146 | O=S1(=O)c2ccccc2Oc2ccccc21 |
| 124 to 126 | Cc1cn(C(C)(C)C(=O)N(C)C)nc1-c1ccccc1C#N |
| 194 to 196 | CC(C)(C)OC(=O)N1CCN(C(=O)NNC(=O)OCc2ccccc2)CC1 |
| 142 | [N-]=[N+]=CC(=O)c1cccc(S(N)(=O)=O)c1 |
| 121 to 122 | Cc1ccc(-c2ccc3c(c2)C(=O)CC3)cc1 |
| 181 to 183 | COC(=O)c1ccc2c(c1)C(=O)C(=Cc1ccc(OC)c(OC)c1OC)O2 |
| 89 to 92.5 | COC(=O)Nc1nc(C)cc(OC)n1 |
| 134 to 136 | NC(=O)N1CCC(OCCN2CCCCC2)C1 (stereo not given) |

| melting point [°C] | Structure (SMILES) |
| --- | --- |
| 297 to 307 | O=C(Nc1ccc(C(F)(F)F)cc1)Nc1ccc2c(c1)COC2=O |
| 104 to 106 | CCCc1nc(C=O)c[nH]1 |
| 167 to 168 | CCN(CC)c1ccc([N+](=O)[O-])c(C(=O)NCC2CCN(C(c3ccccc3)c3ccccc3)CC2)c1 |
| 214 to 215 | CC(C)OCCOc1ccc(-c2ccc3c(c2)C=C(C(=O)Nc2ccc(CN(C)C4CCOCC4)cc2)CCS3(=O)=O)cc1 |
| 235 to 238 | CCc1c2nc(-c3cc(S(C)(=O)=O)ccc3OCC(C)C)[nH]c(=O)c2nn1Cc1ccccn1 |
| 135 to 138 | CCCCc1oc2ccccc2c1Cc1ccc(OS(=O)(=O)c2ccc(C(=O)O)c(O)c2)cc1 |
| 187 to 190 | Nc1nc(-c2ccncc2O)nc2c1c(C(F)(F)F)nn2C1CCCC1 |
| 226 to 228 | COC(=O)c1cn(-c2ccc(O)cc2C)c(C2CCNCC2)cc1=O |
| 203 | O=[N+]([O-])c1cc2cc(Br)ccc2nc1Cl |
| 156 to 158 | CN(C(=O)c1ccc(Cl)cc1)[C@@H]1CCN(C(=O)Nc2ccc(F)nc2)C[C@H]1c1ccc(Cl)c(Cl)c1 |
| > 250 | CC(C)NC(=O)c1cnn(C)c1C(=O)Nc1ccn2nc(-c3ccccc3)nc2c1 |
| 98 to 100 | FC(F)(F)c1ccc(CN2CC3(COc4ccc(-c5cccnc5)cc43)c3ccccc32)o1 (stereo not given) |
| 132 to 133 | COc1ccc(CCNC(=O)C23CC4CC(CC(C4)C2)C3)cc1OC |
| 230 to 231 | COCCn1cc2c(n1)c(N)nc1ccccc12 |
| 252 | Cc1ccccc1-n1cc(C#N)c(=O)[nH]c1=O |
| 110 | O=C1C(CCC(O)c2ccc(F)cc2)C(c2ccc(-c3ccc(O)cc3)cc2)N1c1ccc(F)cc1 (stereo not given) |
| 56 to 58 | Cc1cccc2c1O[C@@H](CN1CCC(CNC(=O)c3cccnc3N)CC1)CO2 |
| 132 to 133 | O=c1[nH]c(=O)c2ccccc2o1 |
| > 250 | Cc1cnc2c(NC(=O)c3c(Cl)cccc3Cl)cccc2c1N1CCNC1=O |

| Structure (SMILES) | melting point [°C] |
| --- | --- |
| Cc1nc(CO)c2n1-c1ccc(Cl)cc1C(c1ccccc1Cl)=NC2 | 215 to 217 |
| CC1CN(c2ccc([N+](=O)[O-])cc2)CC(C)N1 (stereo not given) | 124 to 125 |
